Test [1] deals with T1, γ-secretase (Homo sapiens (Human), UniProt P49768). The test is described as follows: In vitro γ-secretase assay, solubilized γ-secretase, ECL. To be noted: Sb4 substrate. Format: biochemical.
Description: The γ-secretase cleaved Aβ product derived from C100Flag substrate was detected by a pair of antibodies (biotinylated 4G8 and ruthenylated G2-10*) while Sb4 cleaved product was detected by ruthenylated G2-10* alone (FIG. 10a) and quantified using electrochemiluminescence (ECL) technology.
An in vitro assay was based on the one previously reported by Li et al. (2000), except we utilized Sb4 substrate that eliminated the need for biotinylated antibody. […] All assays incorporate ruthenylated G2-10* antibody to detect 40-site cleavage of APP or recombinant Sb4 substrate and quantitated activity by measuring ECL.
The target in test [2] is γ-secretase (Homo sapiens (Human), UniProt P49768+Q92542). The test is described as follows: Photoaffinity labeling of γ-secretase in HeLa membrane by Aβ17-23BPA20-biotin. Format: binding. To be noted: inhibitor at 2 μM. The method, then:
FIG. 4. […] Various concentrations of inhibitor were incubated with APP substrate (S4) or Notch peptide substrate containing the C-terminal biotinylated transmembrane domain of Notch1 and HeLa cell membrane in the presence of 0.25% CHAPSO. Aβ40 was detected by G2-10 antibody. The cleaved Notch product was detected by Val1744 antibody that specifically recognizes the cleaved product between Gly1743 and Val1744. Activities are expressed as percentage relative to reading that was produced in DMSO control. […] Various concentrations of S4 substrate were incubated with HeLa membrane in fixed concentrations of inhibitor as indicated. The double reciprocal velocity (1/v) and substrate concentrations (1/S) are plotted to determine the type of inhibition. […] Assays were conducted as described in FIG. 4A. […] The labeled samples were solubilized with RIPA buffer. Biotinylated proteins were captured with streptavidin-agarose and probed by immunoblotting using antibodies against biotin, PS1-CTF, PS1-NTF, Nicastrin, PEN-2 and APH-1a. HeLa cell membrane proteins were directly loaded onto lanes indicated by an arrow in the PEN-2 and APH-1a blots as positive controls. […] Upper panel: PS1-NTF; Lower panel: PS1-CTF.
The labeled proteins were eluted with 2×SDS sample buffer and analyzed with Western blotting using antibodies against the components of γ-secretase complex. Protein concentration was determined with the Dc protein assay kit (Bio-Rad)
After the photolyzed membranes were solubilized, biotinylated proteins were captured, eluted and analyzed by western blotting with antibodies against biotin, PS1, nicastrin, PEN-2 and APH-1.

In test [3] the target is γ-secretase (Mus musculus (Mouse), UniProt P49769). The test is described as follows: Cell-based activity assay, N2A cells stably over-expressing APP. The method, then:
(§1) The potency of two structurally different GSIs was assayed in four unique γ-secretase activity assays. IC50 values were determined from the dose response curves using a non-linear regression analysis in the Prism software. An in vitro assay was based on the one previously reported by Li et al. (2000), except we utilized Sb4 substrate that eliminated the need for biotinylated antibody. The cell-based activity assay used N2A mouse neuroblastoma cells stably over-expressing APP and a biotinylated 4G8 antibody that binds the C-terminus of the amyloid beta peptide. The exo-cell assay incubated HeLa cells simultaneously with GSI, Sb4 substrate as well as 0.25% CHAPSO detergent prior to detecting substrate cleavage. Finally, the extended exo-cell assay first incubated HeLa cells with GSI for 24 hrs. Subsequently, the cells were washed 1× in PBS and then incubated with Sb4 substrate and CHAPSO detergent. The assay was then carried out exactly as described for the original exo-cell method. All assays incorporate ruthenylated G2-10* antibody to detect 40-site cleavage of APP or recombinant Sb4 substrate and quantitated activity by measuring ECL. The latter assays were performed as previously described (Li et al., 2000). In the in vitro assay, recombinant Sb4 substrate was incubated for 2.5 hours at 37° C. in pH 7.0 PIPES buffer in the presence of 0.25% CHAPSO detergent and solubilized γ-secretase at a final concentration of 40 ng/ul. The detection of cleaved substrate was determined using ruthenylated G2-10* antibody. Since the Sb4 substrate is biotinylated additional 6E10 biotinylated antibody used in earlier assays is not required. In the cell-based assay, N2A mouse neuroblastoma cells that stably overexpress amyloid precursor protein were incubated with γ-secretase inhibitors in a final concentration of 1% DMSO for 24 hrs. Following incubation, the supernatant was removed from the cells and assayed for Aβ40, the cleaved APP product, using ruthenylated G2-10* antibody as well as biotinylated 4G8 antibody.

A further test relates to A20 mouse lymphoma cells. The test is described as follows: Lymphoma cell proliferation assay, [3H]thymidine incorporation. It counts as cell-based. Conditions: 48 hours. As to the method: For a lymphoma cell proliferation assay, A20 mouse lymphoma cells were seeded in a 96-well plate at a concentration of 5×10^5 cells/ml in 100 μl RPMI media containing 2% fetal bovine serum. An additional 100 μl of media containing DMSO or γ-secretase inhibitor was added and incubated for 48 hours at 37° C. After this incubation, the cells were incubated for 5 hours with 2 μCi/ml [^3H]thymidine at 37° C. Proliferative response was then evaluated by harvesting the tritiated DNA from cells using a Skatron cell harvester and proliferation assessed as a function of [^3H]thymidine incorporation measured on a β-counter.

Test [4] addresses T1, γ-secretase. Put plainly: Extended exo-cell γ-secretase assay, HeLa cells. Format: cell-based. The method, then:
as §1, with “In the cell-based assay, N2A mouse neuroblastoma cells that stably overexpress amyloid precursor protein were incubated with γ-secretase inhibitors in a final concentration of 1% DMSO for 24 hrs. Following incubation, the supernatant was removed from the cells and assayed for Aβ40, the cleaved APP product, using ruthenylated G2-10* antibody as well as biotinylated 4G8 antibody.” left out
The exo-cell assay was adapted to monitor real-time γ-secretase activity and inhibition over extended times of pretreatment regimens. […] This modified, extended treatment exo-cell assay is capable of quantifying remaining γ-secretase activity following drug treatment on virtually any cell type. The IC50 values for Compound E and GSI-34 were calculated using the extended exo-cell assay (Table 3 and FIG. 15d). […]

Like-named read-outs stand apart in the source and are kept apart here.

For orientation: IC50 means the concentration that gives 50% inhibition. Turning to `CC(NC(=O)Cc1cc(F)cc(F)c1)C(=O)NC1N=C(c2ccccc2)c2ccccc2N(C)C1=O` (stereo not shown) [Compound E], the IC50 against γ-secretase [1] was found to be 1.2 nM; at γ-secretase [3] (24 hrs, Aβ40; read-out: Cell-based (nM), IC50) it was 4.6 nM; on γ-secretase [3] (read-out: Cell-based (nM), IC50; 24 hrs, Aβ40), 4.6 nM; at γ-secretase [4] (24 hrs pretreatment, read-out: Extended Exo-Cell (nM), IC50), 2.8 nM; at γ-secretase [4] (Extended Exo-Cell (nM), IC50, 24 hrs pretreatment) it was 2.83 nM. At γ-secretase [2], the “block of photo-crosslinking of PS1-CTF and PS1-NTF by Aβ17-23BPA20-biotin” value is recorded as “completely blocked”. The “inhibition of cellular proliferation” value in the test with A20 mouse lymphoma cells is “able to inhibit cellular proliferation”.
